Patent US11324826B2, “Multifunctional treatment and diagnostic compositions and methods” (priority 2018, dated 2022)
“And” between values parts separate entries of the source, which are not always exact repeats. Equal entries are not always repeated.

Experiments:
[1] = Photooxidation of DHN under visible light irradiation in anaerobic (argon purged) solution, DHN absorption monitored at 301 nm; conditions: for Rate, first order rate constant of DHN photooxidation: anaerobic conditions, visible light, acetonitrile:water (6:4); for Photooxidation of DHN (in words): anaerobic
Procedure: First, the treatment composition (DHN+TMPyP+Fe(III)) was compared against commercially available Fe(III)TMPyP and prepared TMPyP+Fe(II), all in presence of DHN, to determine if any or all can produce hydroxyl radical (OH) in anaerobic condition. An aqueous solution of TMPyP and DHN was thoroughly purged with argon followed by irradiation with visible light. DHN's absorption at 301 nm was recorded in 2 minute intervals to monitor in situ production of OH in solution.

[2] = Photooxidation of DHN under visible light irradiation in aerobic solution, DHN absorption monitored at 301 nm; conditions: for Rate, first order rate constant of DHN photooxidation: aerobic conditions, visible light, acetonitrile:water (6:4)
Procedure: For a typical experiment, microliter amounts of standard solutions were combined, for illustration not limitation, microliter amounts of a standard solution of Fe(III) solutions (30 μL of 1.0×10^−2 M) and DHN solution (36 μL of 1.0×10^−2 M) added into a cuvette containing 3 mL of solution TMPyP (6.00×10^−6 M). Quartz cuvettes with 1 cm path-length and 3 mL volume were used for all measurements.
For singlet oxygenation of 1,5-dihydroxynaphthalene (DHN) by TMPyP in aqueous solution, a 3 mL solution of DHN (1.2×10^−4 M) and TMPyP (6.0×10^−6 M) was prepared by mixing 36 μL of 1×10^−2 M of DHN standard solution and 18 μL of 1×10^−3 M of TMPyP standard solution with ultrapure water. The solution was prepared at room temperature in an open atmosphere. Photooxygenation of samples was performed in a Rayonet photoreactor and monitored by recording a decrease of UV-vis absorption. For example, photoxygenation of DHN by TMPyP was performed in a Rayonet photoreactor for approximately twenty minutes at 28° C. and the photooxygenation of DHN was monitored by recording a decrease of UV-vis absorption of DHN at 301 nm for 20 minutes in 2 minutes intervals. The effect of metal ions on singlet oxygen generation was studied similarly except with the addition of microliter amounts of M^2+ or M^3+ ions (1×10^−2 M) (positively charged cations with a +2 charge or a +3 charge) into a DHN/TMPyP aqueous solution.

BL21 E. coli [3] = experiment: In vitro BL21 E. coli growth inhibition in hydrogen peroxide rich environment under dark conditions; format: cell-based; conditions: alone at the experimental concentration (Fe(III) 1.0×10^−4 M or 1.0×10^−3 M; 400 μM H2O2)
Procedure: To determine utility for treatment of bacteria of the claimed treatment compositions in an aqueous H2O2 rich environment (typical tumor environment), E. coli bacteria were mixed with the treatment composition in the presence of H2O2 in dark conditions under normal room temperature and pressure. […] A series of control reactions were carried out to see if alone, any of Fe(III) ions with 1.0×10^−4 M concentration (FIG. 23A) or Fe(III) ions with 1.0×10^−3 M concentration (FIG. 23B) or 400 μM H2O2 (FIG. 23C) can inhibit the growth of E. coli bacteria under identical reaction conditions.

BL21 E. coli [4] = experiment: In vitro BL21 E. coli growth inhibition in aerobic conditions, visible light versus dark; format: cell-based; conditions: growth recorded after 48 hours
Procedure: Method to assess bacteria inhibition examined in vitro effects with BL21 E. coli. […] Prior art procedure reported in Photochemistry and Photobiology 2010, 86 (4), 890-894 was followed to grow E. coli cells, even though other prior art procedures can be used. BL21 was selected because of availability. […] Luria Broth (LB)-Lennox formulation were allowed to grow in an incubator at 28° C. shaking at 250 rpm until the beginning of their exponential growth phase (A600=0.2). For each experiment, one milliliter of the E. coli solution was centrifuged and washed with sterile water once. After removing washing liquid, the E. coli solutions were then re-suspended in 500.0 μL of sterile water and 200 μL of stock solutions of each of the following were added: (a) DHN (4.2×10^−44.20×10^−4 M), (b) Juglone (4.2×10^−44.20×10^−4 M), (c) Fe(III) (3.5×10^−4 M) and TMPyP (2.1×10^−52.10×10^−5 M), (d) DHN (4.2×10^−44.20×10^−4 M) and TMPyP (2.1×10^−52.10×10^−5 M), (e) Fe(III) (3.5×10^−4M), DHN (4.2×10^−4 M) and TMPyP (2.1×10^−5 M), (f) Fe(III) (3.5×10^−4 M), Juglone (4.2×10^−4 M) and TMPyP (2.1×10^−5 M), and TMPyP (2.1×10^−5).
Controls of each sample were prepared similarly and kept covered to assure that no light was reacted with the TMPyP while other samples were irradiated in a Rayonet photoreactor for 10 minutes. After irradiation, the 700.0 μL samples were briefly vortexed and then 20.0 μL of each sample was spread evenly over individual petri dishes containing LB agar. The plates were inverted, then incubated at 28° C. for 48 hours.
A “light versus dark” comparison study was performed by introducing treatment composition into two equal concentrations of E. coli bacteria solutions, one E. coli solution was kept in dark while other was irradiated with visible light.
As part of the test, a comparison study, including “light versus dark” was performed of treatment composition (FIG. 22E Fe(III) (3.5×10^−4 M), DHN (4.2×10^−4M) and TMPyP (2.1×10^−5 M), versus FIG. 22A DHN (4.2×10^−4 M), FIG. 22B Juglone (4.2×10^−4 M), FIG. 22C Fe(III) (3.5×10^−4 M) and TMPyP (2.1×10^−5 M), FIG. 22D DHN (4.2×10^−4 M) and TMPyP (2.1×10^−5 M), and FIG. 22F Fe(III) (3.5×10^−4 M), Juglone (4.2×10^−4 M) and TMPyP (2.1×10^−5 M).

[5] = in water, prior art literature value; cited from earlier work
[6] = aqueous solution, 655 nm CW laser, calculated with Equation 1
Procedure: Singlet Oxygen Quantum Yield (ΦΔ) of TMPyP was determined using DHN (1.2×10^−4 M) as a singlet oxygen quencher and methylene blue (MB) as a reference standard. A 3 mL solution of TMPyP (6.0×10^−6 M) solution and MB (1.0×10^−5 M) solution both of which contain DHN (1.2×10^−4 M) were prepared. Each solution was irradiated with a 655 nm CW laser and the UV-vis spectrum of each solution was recorded at 1 min intervals for 5 minutes. The quantum yields were calculated with Equation 1 by using ΦΔ(s) of MB (ΦΔ=0.52) reported in the prior art.
[formula] In Equation 1, S is the slope of the plot of the absorbance versus irradiation, and F is the absorption correction factor.
To determine the efficiency of TMPyP for singlet oxygen generation in aqueous solution, ^1O2 quantum yield (ΦΔ) was calculated by using methylene blue as a standard with a known ΦΔ of 0.52. […] Most importantly, the reaction of DHN and ^1O2 can be monitored by observing gradual decrease of the absorption of DHN peaks from 295 nm to 355 nm and so DHN can be used as a ^1O2 probe for ^1O2 quantum yield (ΦΔ) measurement.
Above cited Equation 1 was followed to calculate ^1O2 quantum yield (ΦΔ) for TMPyP, where S is the slope of the plot of the absorbance versus irradiation, and F is the absorption correction factor.

[7] = aqueous solution 6.0×10^−6 M, excitation 423 nm, calculated with Equation 3
Procedure: For fluorescence study, three solutions of 3 mL volume were prepared. Study solution 1 (aqueous solution of TMPyP) was prepared by mixing 18 μL of 1.0×10^−3 M TMPyP with ultrapure water. Study solution 2 (aqueous solution of TMPyP and Fe(III) ions) was made by mixing 18 μL of 1.0×10^−3 M TMPyP and 30 μL of 1.0×10^−2 M iron(III) chloride with ultrapure water. Study solution 3 (aqueous solution of TMPyP and DHN) was prepared by mixing 18 μL of 1.0×10^−3 M TMPyP and 36 μL of 1.0×10^−2 M DHN with ultrapure water. Fluorescence emission was measured upon excitation of each solution at 423 nm with an excitation slit width of 10.0 nm and an emission slit width of 12.0 nm. Each experiment was carried out at room temperature and under normal atmospheric conditions.
Crystal violet (1.0×10^−5 M) with a known ΦF=0.020 in water was used as a standard.
Then the fluorescence quantum yield (ΦF) of TMPyP was calculated by using Equation 3 and crystal violet (1.0×10^−5 M) as a standard with ΦF=0.020 in water, fluorescence quantum yield known from the prior art.
[formula] where in Equation 3, A is the absorbance, F represents the area under the emissions curve, and n is the refractive index of the solvent used.

[8] = reported in the prior art; cited from earlier work
[9] = irradiated with visible light 10 minutes

Oc1ccc(-c2c3nc(c(-c4ccc(O)cc4)c4ccc([nH]4)c(-c4ccc(O)cc4)c4nc(c(-c5ccc(O)cc5)c5ccc2[nH]5)C=C4)C=C3)cc1 [p−THP, meso-tetra(p-hydroxyphenyl)porphine]
Rate, first order rate constant of DHN photooxidation [1]: 2e-05 s⁻¹
Rate, first order rate constant of DHN photooxidation [2]: 0.0008 s⁻¹

OO [H2O2, hydrogen peroxide]
Inhibition of growth of E. coli, control alone (BL21 E. coli [3]): No noticeable inhibition

O=C1C=CC(=O)c2c(O)cccc21 [Juglone, 5-hydroxy-1,4-naphthalenedione]
Inhibition of E. coli growth (BL21 E. coli [4]; [9]): complete inhibition
Inhibition of E. coli growth (BL21 E. coli [4]; kept in dark): complete inhibition

C[n+]1ccc(-c2c3nc(c(-c4cc[n+](C)cc4)c4ccc([nH]4)c(-c4cc[n+](C)cc4)c4nc(c(-c5cc[n+](C)cc5)c5ccc2[nH]5)C=C4)C=C3)cc1.[Cl-].[Cl-].[Cl-].[Cl-] [TMPyP, meso-tetra(N-methyl-4-pyridyl) porphine tetrachloride]
Fluorescence quantum yield (ΦF), prior art [5]: 0.016
Singlet oxygen quantum yield (ΦΔ) [6]: 0.503
Fluorescence quantum yield (ΦF) [7]: 0.0139
Photooxidation of DHN (in words) ([1]; absence of Fe(III) ions, FIG. 13): negligible photooxidation
Photooxidation of DHN (in words) ([1]; presence of Fe(III) ions, FIG. 14): substantial photooxidation
Maximum rate of photooxidation of DHN by TMPyP (k) ([2]; aerobic, Fe(III) ions about 50 μL of 1.0×10^−2 M): 0.000943 s⁻¹
Rate constant of DHN photooxidation by TMPyP ([2]; aerobic, metal free solution): 0.000658 s⁻¹
Rate of photooxidation of DHN by TMPyP (k) ([2]; aerobic, upon addition of 10 μL of 1.0×10^−3 M of Fe(III) ions): 0.00039 s⁻¹
Rate of photooxidation of DHN by TMPyP (k) ([2]; aerobic, upon addition of 75 μL of 1.0×10^−2 M of Fe(III) ions): 0.000568 s⁻¹
Singlet oxygen quantum yield (ΦΔ), prior art [8]: 0.58 and 0.74 and 0.9

C[n+]1ccc(C2=C3C=CC(=N3)C(c3cc[n+](C)cc3)=c3ccc4[n]3[Fe+][n]3c2ccc3C(c2cc[n+](C)cc2)=C2C=CC(=N2)C=4c2cc[n+](C)cc2)cc1 [Fe(III)TMPyP, Fe(III) bound meso-tetrakis(N-methyl-4-pyridyl) porphyrin]
Rate constant k of photo-oxidation of DHN ([1]; anaerobic aqueous environment, FIG. 12): 5.5e-05 s⁻¹
Rate constant of photooxidation of DHN ([2]; aerobic aqueous environment, FIG. 11): 4.67e-05 s⁻¹
Rate Constant, kobs, of DHN decay kinetics ([2]; aerobic aqueous solution as printed, DHN 1.2×10^−4 M, porphyrin 6.0×10^−6 M, iron 1.0×10^−4 M, 301 nm): 5.5e-05 s⁻¹

CN(C)c1ccc(C(=C2C=CC(=[N+](C)C)C=C2)c2ccc(N(C)C)cc2)cc1 [Crystal violet]
Fluorescence quantum yield (ΦF), prior art [5]: 0.020

CN(C)c1ccc2nc3ccc(=[N+](C)C)cc-3sc2c1 [methylene blue]
Singlet oxygen quantum yield (ΦΔ), prior art [8]: 0.52

[Cl][Fe]([Cl])[Cl] [Fe(III) ions, iron (III) chloride]
Inhibition of growth of E. coli, control alone (BL21 E. coli [3]): No noticeable inhibition

Oc1cccc(-c2c3nc(c(-c4cccc(O)c4)c4ccc([nH]4)c(-c4cccc(O)c4)c4nc(c(-c5cccc(O)c5)c5ccc2[nH]5)C=C4)C=C3)c1 [m−THP, meso-tetra(m-hydroxyphenyl)porphine]
Rate, first order rate constant of DHN photooxidation [1]: 4e-05 s⁻¹
Rate, first order rate constant of DHN photooxidation [2]: 0.0012 s⁻¹

Oc1cccc2c(O)cccc12 [DHN, 1,5-dihydroxynaphthalene]
Inhibition of E. coli growth (BL21 E. coli [4]; [9]): very marginal inhibition effect
Inhibition of E. coli growth (BL21 E. coli [4]; kept in dark): almost no inhibition
